Measured values published in patent publication US20040248209A1, “Use of g protein-coupled receptor protein” (priority 2001, published 2004).

Columns and labels:
Type in all cases: cell-based
[1] = molecular target: T1, H7TMB56 (Homo sapiens, UniProt Q96LA9); assay: CRE promoter luciferase reporter gene assay in HEK293 cells transiently expressing H7TMB56; conditions: HEK293 cells bearing the H7TMB56 gene (SEQ ID NO: 2) versus other receptor control; 2×10^−4 to 10^−5 M; 4 hours; FIGS. 5 to 7
T1 construct: expressed in transfected cells
T1 sequence (Q96LA9 whole entry): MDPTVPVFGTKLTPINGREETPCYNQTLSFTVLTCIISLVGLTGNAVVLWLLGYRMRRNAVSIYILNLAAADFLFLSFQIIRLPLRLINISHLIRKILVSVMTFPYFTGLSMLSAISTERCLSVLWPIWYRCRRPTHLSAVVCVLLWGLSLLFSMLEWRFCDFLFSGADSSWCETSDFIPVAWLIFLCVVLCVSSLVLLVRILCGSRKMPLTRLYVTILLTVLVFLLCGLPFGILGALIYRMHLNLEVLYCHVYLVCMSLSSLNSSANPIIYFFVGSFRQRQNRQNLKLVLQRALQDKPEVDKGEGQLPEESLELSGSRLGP
Source text: The H7TMB56-specific stimulating activity by the isoprenoid-related substances was detected using as an indicator the expression level of reporter gene product (luciferase) produced by expression induction of CRE promoter.
HEK293 cells were suspended in growth medium (DMEM (Dulbecco's Modified Eagle Medium) (Gibco BRL) supplemented with 10% fetal bovine serum (Gibco BRL)) and plated on a 96-well plate of black well (Beckton-Dickinson, Inc.) coated with collagen in 1×10^5 cells/well. […]
The transfected HEK293 cells were washed with an assay buffer (DMEM supplemented with 0.1 % bovine serum albumin), and commercially available compounds containing farnesyl pyrophosphate (Sigma) and geranylgeranyl pyrophosphate (Sigma) diluted with the assay buffer were added to the cells, respectively, in 2×10^−4 to 10^−5 M, followed by incubation at 37° C. for 4 hours in 5% CO2. After the supernatant was discarded, 50 μl of PicaGene LT2.0 (Toyo Ink Mfg. Co., Ltd.) was added as a substrate for assaying the luciferase activity and a luminescence level of the luciferase was measured on a plate reader (ARVO sx Multi-Label Counter, Wallac, Inc.).

[2] = molecular target: T1, H7TMB56; assay: intracellular cAMP production promoting activity in CHO cells stably expressing H7TMB56 (clone 22) versus mock cells; conditions: for intracellular cAMP production promoting activity, dose dependency: CHO cell clone highly expressing H7TMB56, FIG. 13; for agonist activity to H7TMB56 (cAMP production), specificity and dose dependency: CHO clone 22 versus mock cells, FIGS. 8 and 9; for cAMP production promoting activity (specific agonist activity): dose of 10 μM, H7TMB56 CHO cells (FIG. 10) versus mock cells (FIG. 11)
Description: The same expression vector as used in EXAMPLE 1 was transfected to CHO dhfr^− cells using Gene Transfer (Wako Pure Chemical Industries, Ltd.), which was cultured in nucleic acid-free medium to select transformants. […] The intracellular cAMP level was assayed using cAMP Screen Kit (Applied Biosystems, Inc.). […] Furthermore, the cAMP production promoting activities on H7TMB56 (FIG. 10) and mock cells (FIG. 11) were assayed with respect to various isoprenoid-related substances in a dose of 10 μM (1: isopentenyl pyrophosphate, 2: dimethylallyl pyrophosphate, 3: geranyl pyrophosphate, 4: farnesyl pyrophosphate, 5: geranylgeranyl pyrophosphate, 6: geraniol, 7: farnesol, 8: geranylgeraniol, 9: trans, trans-farnesol, 10: trans, trans-farnesyl bromide, 11: geranyl acetone, 12: geranyl acetate, 13: geranylamine and 14: geranyl chloride). As a result, the agonist activity specific to geranyl pyrophosphate was detected as well, in addition to farnesyl pyrophosphate and geranylgeranyl pyrophosphate (FIG. 10).
In a manner similar to EXAMPLE 2, the intracellular cAMP production promoting activity was assayed on 5 isoprenoid-related substances.

[3] = molecular target: T1, H7TMB56; assay: internalization of H7TMB56-GFP fused protein in CHO cells, confocal microscope; conditions: 10^−6 M added to the medium
Source text: An expression plasmid was constructed to express a fused protein of Green Fluorescent Protein (GFP) cDNA isolated from jelly fish Auquorea victoria, fused to H7TMB56 at the C-terminus to fit the translation frame. In this case, a fragment excised out of GFP expression vector pQBI25 (Takara Shuzo Co., Ltd.) was used as GFP cDNA. In H7TMB56, its termination codon was modified by PCR to recognition sequence with restriction enzyme NheI, and the GFP fragment was ligated thereto, which was inserted into the expression vector pAKKO-111H described in EXAMPLE 1. The thus obtained plasmid of the H7TMB56 and GFP -fused protein expression vector was transfected to CHO cells by the following procedure. CHO cells were suspended in a growth medium [DMEM (Dulbecco's Modified Eagle Medium) (GIBCO BRL, Inc.) supplemented with 10% fetal bovine serum, and plated on a Lab-Tekii cover glass chamber with 4 chambers (Nalgen Nunc, Inc.) in a concentration of 0.6×10^5 cells/chamber. After incubation overnight at 37° C. in 5% CO2, transfection was performed. For transfection, Lipofectamine™ 2000 Reagent (GIBCO BRL, Inc., Inc.) was used. First, 2 μl of Lipofectamine™ 2000 Reagent was mixed with 50 μl of OPTI-MEM-I (GIBCO BRL, Inc.). […]

[4] = molecular target: T1, H7TMB56; assay: activation (phosphorylation) of p44/42 MAP kinase in H7TMB56 expression CHO cells versus mock cells, western blotting; conditions: 0.1 μM, 0, 5, 10 minutes, FIG. 14
Description: H7TMB56 expression CHO cells and mock cells were plated on a 6-well plate in 3×10^5 cells/well, followed by incubation overnight. In order to make serum free, the medium was replaced by nucleic acid-free α-MEM medium supplemented with 0.1% BSA and incubation was further continued overnight. Immediately before the assay, pre-incubation was again carried out for 2 hours. After 0.1 μM of farnesyl pyrophosphate was added to the medium to initiate the treatment, the medium was removed by suction at regular time intervals and then a sample buffer for SDS-PAGE was added to terminate the reaction. SDS-PAGE was performed in a conventional manner to transfer the protein onto a nitrocellulose filter. Thereafter, phosphorylated p44/42 MAP kinase was detected following the instructions described in the manual of PhosphoPlus p44/42 MAPK (Thr202/Tyr204) Antibody Kit (Cell Signaling, Inc.).

Row | Compound | luciferase activity (expression level of reporter gene product by CRE promoter) [1] | intracellular cAMP production promoting activity, dose dependency [2] | agonist activity to H7TMB56 (cAMP production), specificity and dose dependency [2] | cAMP production promoting activity (specific agonist activity) [2] | internalization of H7TMB56-GFP from cell membrane to cytoplasm [3] | phosphorylation of p44/42 MAP kinase [4]
1 | CC(C)=CCC/C(C)=C/CC/C(C)=C/COP(=O)(O)OP(=O)(O)O [farnesyl pyrophosphate] | increased | promoted the production of cAMP dose-dependently | confirmed the specificity in the agonist activities | detected | internalization occurred | phosphorylation of MAP kinase was detected
2 | CC(C)=CCC/C(C)=C/COP(=O)(O)OP(=O)(O)O [geranyl pyrophosphate] | – | promoted the production of cAMP dose-dependently | – | detected | – | –
3 | CC(C)=CCC/C(C)=C/CC/C(C)=C/CC/C(C)=C/COP(=O)(O)OP(=O)(O)O [geranylgeranyl pyrophosphate] | increased | promoted the production of cAMP dose-dependently | confirmed the specificity in the agonist activities | detected | – | –
